Earlier results in US20040067918A1, “Combination of an aldosterone receptor antagonist and nicotinic acid or a nicotinic acid derivative” (priority 2002, published 2004).

Conditions: severe heart failure patients on standard therapy, relative to placebo-treated subjects

SMILES: CC(=O)SC1CC2=CC(=O)CCC2(C)C2CCC3(C)C(CCC34CCC(=O)O4)C12 (stereo not drawn) [spironolactone, 17-hydroxy-7α-mercapto-3-oxo-17α-pregn-4-ene-21-carboxylic acid γ-lactone acetate]
- incidence of hospitalization: statistically significant reduction
- mortality: statistically significant reduction
